Laboratory results from patent US20050186617A1, “Gene screening method using nuclear receptor” (Chugai Seiyaku Kabushiki Kaisha, a Japanese corporation, priority 1997, published 2005).

Legend:
1α (OH)-ase gene = test: Northern blot of CYP1AD (1α(OH)-ase) gene expression in mice given excess 1α,25(OH)2D3; format: in vivo; details: 50 ng/mouse
Text: The tissue distribution of CYP1AD transcripts in 7-week-old normal and VDR−/− mice was examined. Poly(A)^+ RNA was extracted from brain, lung, heart, liver, spleen, kidney, small intestine, skeletal muscle, skin, and bone, and analyzed by northern blot technique using cDNA of CYP1AD and β-actin as probes (K. Takeyama et al., Biochem. Biophys. Res. Commun. 222, 395 (1996); H. Mano et al., J. Biol. Chem. 269, 1591 (1994)). As the result, the transcript of CYP1AD was detected as a single band in the kidney. The size of the transcript (2.4 kbp) is identical to that of cloned cDNA (FIG. 10). Except for kidney, in, 1α (OH)-ase activity has been reported in other tissues than kidney (A. W. Norman, J. Roth, L. Orchi, Endocr. Rev. 3, 331 (1982); H. F. DeLuca, Adv. Exp. Med. Biol. 196, 361 (1986); M. R. Walters, Endocr. Rev 13, 719 (1992); G. A. Howard, R. T. Turner, D. J. Sherrard, D. J. Baylink, J. Biol. Chem. 256, 7738 (1981); T. K. Gray, G. E. Lester, R. S. Lorenc, Science 204, 1311 (1979)). However, the transcript of 1α (OH)-ase was not detected in tissues other than kidney in this experiment.
The relative amount of the hydroxylase gene standardized with the β-actin gene transcripts was measured in at least 5 mice for each group (FIG. 12).

GAL4-VDR(DEF) = test: CAT reporter assay in COS-1 cells co-transformed with GAL4-VDR(DEF) and 17M2-G-CAT; format: cell-based

| SMILES | expression of the 1α (OH)-ase gene (1α (OH)-ase gene; 3- and 7-week-old VDR−/− mice) | expression of the 1α (OH)-ase gene (1α (OH)-ase gene; VDR+/+ and VDR+/− mice) | activation of the CAT reporter gene (GAL4-VDR(DEF); CYP1AD expressed, with ADX and ADR expression vectors) | activation of the CAT reporter gene (GAL4-VDR(DEF); in the absence of ADX or ADR) |
| --- | --- | --- | --- | --- |
| C=C1/C(=C\C=C2/CCC[C@]3(C)[C@@H]([C@H](C)CCCC(C)(C)O)CC[C@@H]23)C[C@@H](O)C[C@@H]1O [1α,25(OH)2D3, 1α,25-Dihydroxyvitamin D3] | the inhibition did not occurred | significantly inhibited |  |  |
| C=C1CC[C@H](O)C/C1=C/C=C1\CCC[C@]2(C)[C@@H]([C@H](C)CCCC(C)(C)O)CC[C@@H]12 [25(OH)D3, 25-hydroxyvitamin D3] |  |  | activated the CAT reporter gene | did not significantly activate the reporter gene |
